Where a chain is given by its changes, count along the chain named.
Tests used:
[1] = target: T1, 6His-Oaz1 (antizyme, OAZ) (Saccharomyces cerevisiae, UniProt Q02803); experiment: competition with [3H]-spermidine; type: binding; conditions: 10 µM [3H]-spermidine; competitive
T1 construct: full-length, in-frame OAZ1 (no ribosomal frameshift needed), 6His tag, from E. coli Rosetta (plasmid pDG240)
T1 sequence (Q02803 1-292): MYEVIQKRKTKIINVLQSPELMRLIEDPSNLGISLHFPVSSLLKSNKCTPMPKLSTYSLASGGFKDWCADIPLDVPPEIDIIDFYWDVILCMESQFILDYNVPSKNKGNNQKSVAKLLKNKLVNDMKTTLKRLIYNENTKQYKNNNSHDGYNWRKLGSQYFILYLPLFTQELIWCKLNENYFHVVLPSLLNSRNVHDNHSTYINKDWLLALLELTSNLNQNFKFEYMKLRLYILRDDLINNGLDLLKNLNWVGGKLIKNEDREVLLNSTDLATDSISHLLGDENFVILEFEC

[2] = target: T1, 6His-Oaz1 (antizyme, OAZ); experiment: [3H]-spermidine retention by 6His-tagged protein; type: binding; conditions: labelled compound
[3] = target: T2, 6His-Oaz1 (antizyme, OAZ) (Saccharomyces cerevisiae, UniProt Q02803, L245A/L246A/K247A/W251A); experiment: [3H]-spermidine retention by 6His-tagged protein; type: binding; conditions: labelled compound
T2 construct: full-length, in-frame OAZ1 (no ribosomal frameshift needed), 6His tag, from E. coli Rosetta (plasmid pDG240)
T2 sequence (Q02803 1-292 L245A/L246A/K247A/W251A): T1 sequence (Q02803 1-292) with L245A, L246A, K247A, W251A

26S proteasome = target: T3, 26S proteasome (Saccharomyces cerevisiae, UniProt P23724+P30656); experiment: Suc-LLVY-AMC hydrolysis; type: biochemical; conditions: 1 mM ATP; 1 mM DTT; 5 mM MgCl2; pH 7.8; weak effect, site unknown
T3 construct: gene PRE2; anti-Flag beads; singly and doubly capped, some free 20S; with Proteasome subunit beta type-4; Proteasome subunit beta type-1; Proteasome subunit beta type-2; Proteasome subunit beta type-3; Proteasome subunit beta type-7; Proteasome subunit alpha type-1; Proteasome subunit alpha type-2; Proteasome subunit alpha type-3; Proteasome subunit alpha type-4; Proteasome subunit alpha type-5; Proteasome subunit alpha type-6; Proteasome subunit alpha type-7

SMILES: CC(=O)NCCCNCCCCN [N1-acetylspermidine]
- competition with [3H]-spermidine [1]: mono-acetylspermidine derivatives: "mono-acetylated spermidine derivatives showed a clearly reduced binding to antizyme"

SMILES: NCCCCNCCCN [spd, spermidine]
- [3H]-spermidine retention by 6His-tagged protein [2]: retention of [^3H]-spermidine by 6His-Oaz1 or 6His-Oaz1-4res
- [3H]-spermidine retention by 6His-tagged protein [3]: Oaz1-4res bound [^3H]-spermidine with a similar efficiency as its wild-type counterpart

SMILES: NCCCNCCCCNCCCN [spm, spermine]
- activity versus spermine concentration (26S proteasome): A small reduction in proteasome activity was observed with polyamine addition

SMILES: CC(=O)NCCCCNCCCN [N8-acetylspermidine]
- competition with [3H]-spermidine [1]: mono-acetylated spermidine derivatives showed a clearly reduced binding to antizyme

— paper PMC5349141, “Polyamines directly promote antizyme-mediated degradation of ornithine decarboxylase by the proteasome” (Microbial Cell, 2015)
